Values after ≈ are worked out from the molar mass of the structure shown.
Assays:
Experiment in all cases: Antibacterial test, agar plate dilution method (MIC)
Format in all cases: cell-based
S. aureus FDA 209 JC-1 = conditions: Staphylococcus aureus, FDA209, MH agar, 37° C., 18 hours
Protocol: (§1) The antibacterial activities were tested by an agar plate dilution method in accordance with the standard method of The Japanese Chemotherapy Society [Chemotherapy, Vol.29, 76-79(1981)]. A Mulluer-Hinton (MH) agar liquid medium of a test microorganism was cultured overnight at 37° C. and the resultant culture medium was diluted with a buffered saline gelatin (BSG) solution to contain approximately 10^6 cells of the test microorganisms per milliliter, and then the diluted solution was inoculated with a micro-planter at the rate of approximately 5 μl on a MH agar medium containing a test compound. This medium was then incubated at 37° C. for 18 hours. The minimum inhibitory concentration (MIC) is determined as a minimum concentration in which no test microorganism could grow.
(§2) It is noted here that the test organisms used were all standard strains, and test compounds were Compound (8) and (15) obtained in Examples mentioned later.

S. aureus MS 353 = conditions: Staphylococcus aureus, MS353, MH agar, 37° C., 18 hours
Protocol: as §1, §2

S. typhi 901 = conditions: Salmonella enterica, 18 h
Protocol: as §1, §2

E. aerogenes ATCC 13048 = conditions: Klebsiella aerogenes, ATCC13048, MH agar, 37° C., 18 hours
Protocol: as §1, §2

S. typhimurium 11D971 = conditions: Salmonella enterica, MH agar, 37° C., 18 hours
Protocol: as §1, §2

P. mirabilis IFO 3849 = conditions: Proteus mirabilis, IFO3849, MH agar, 37° C., 18 hours
Protocol: as §1, §2

M. morganii IFO 3848 = conditions: Morganella morganii, IFO3848, MH agar, 37° C., 18 hours
Protocol: as §1, §2

M. luteus ATCC 9341 = conditions: Micrococcus luteus, ATCC9341, MH agar, 37° C., 18 hours
Protocol: as §1, §2

E. cloacae 963 = conditions: Enterobacter cloacae, MH agar, 37° C., 18 hours
Protocol: as §1, §2

B. subtilis ATCC 6633 = conditions: Bacillus subtilis, ATCC6633, MH agar, 37° C., 18 hours
Protocol: as §1, §2

S. schottmuelleri 8006 = conditions: MH agar, 37° C., 18 hours
Protocol: as §1, §2

P. aeruginosa IFO 3445 = conditions: Pseudomonas aeruginosa, IFO3445, MH agar, 37° C., 18 hours
Protocol: as §1, §2

P. vulgalis HX-19 = conditions: MH agar, 37° C., 18 hours
Protocol: as §1, §2

P. aeruginosa PAO 1 = conditions: Pseudomonas aeruginosa, PAO1, MH agar, 37° C., 18 hours
Protocol: as §1, §2

E. coli NIHJ JC-2 = conditions: Escherichia coli, NIHJJC2, MH agar, 37° C., 18 hours
Protocol: as §1, §2

P. rettgeri IFO 3850 = conditions: Providencia rettgeri, IFO3850, MH agar, 37° C., 18 hours
Protocol: as §1, §2

P. aeruginosa NCTC 10490 = conditions: Pseudomonas aeruginosa, NCTC10490, MH agar, 37° C., 18 hours
Protocol: as §1, §2

S. enteritridis G14 = conditions: MH agar, 37° C., 18 hours
Protocol: as §1, §2

E. coli K-12 C600 = conditions: Escherichia coli, K12C600, MH agar, 37° C., 18 hours
Protocol: as §1, §2

K. pneumoniae PCI-602 = conditions: Klebsiella pneumoniae, PCI602, MH agar, 37° C., 18 hours
Protocol: as §1, §2

P. vulgaris OX-19 = conditions: Proteus vulgaris, OX19, MH agar, 37° C., 18 hours
Protocol: as §1, §2

S. pyogenes Cook = conditions: Streptococcus pyogenes, MH agar, 37° C., 18 hours
Protocol: as §1, §2

S. paratyphi 1015 = conditions: Salmonella enterica, MH agar, 37° C., 18 hours
Protocol: as §1, §2

S. aureus Terajima = conditions: Staphylococcus aureus, MH agar, 37° C., 18 hours
Protocol: as §1, §2

For C[C@@H](O)[C@H]1C(=O)N2C(C(=O)O)=C(SC3CN(C4=NCCN4C)C3)[C@H](C)[C@H]12 [Compound (8), (1R,5S,6S)-2-[1-(1-methy-2-imidazolin-2-yl)azetidin-3-yl]-thio-6-[(R)-1-hydroxyethyl]-1-methylcarbapen-2-em-3-carbolic acid], the MIC (S. aureus FDA 209 JC-1) was 0.025 µg/mL (≈ 0.0657 µM), the MIC (S. aureus MS 353) was 0.013 µg/mL (≈ 0.0342 µM) and the MIC (S. typhi 901) was 0.025 µg/mL (≈ 0.0657 µM). The MIC (E. aerogenes ATCC 13048) was 0.1 µg/mL (≈ 0.263 µM), the MIC (S. typhimurium 11D971) was 0.05 µg/mL (≈ 0.131 µM) and the MIC (P. mirabilis IFO 3849) was 0.78 µg/mL (≈ 2.05 µM). The MIC (M. morganii IFO 3848) was 0.2 µg/mL (≈ 0.526 µM), the MIC (M. luteus ATCC 9341) was 0.025 µg/mL (≈ 0.0657 µM) and the MIC (E. cloacae 963) was 0.1 µg/mL (≈ 0.263 µM). It also gave an MIC (B. subtilis ATCC 6633) of 0.025 µg/mL (≈ 0.0657 µM), an MIC (S. schottmuelleri 8006) of 0.1 µg/mL (≈ 0.263 µM) and an MIC (P. aeruginosa IFO 3445) of 3.13 µg/mL (≈ 8.23 µM). The MIC (P. vulgalis HX-19) was 0.39 µg/mL (≈ 1.03 µM), the MIC (P. aeruginosa PAO 1) was 12.5 µg/mL (≈ 32.9 µM) and the MIC (E. coli NIHJ JC-2) was 0.025 µg/mL (≈ 0.0657 µM). The MIC (P. rettgeri IFO 3850) was 0.05 µg/mL (≈ 0.131 µM), the MIC (P. aeruginosa NCTC 10490) was 12.5 µg/mL (≈ 32.9 µM) and the MIC (S. enteritridis G14) was 0.2 µg/mL (≈ 0.526 µM). For the same compound, the MIC (E. coli K-12 C600) was 0.1 µg/mL (≈ 0.263 µM), the MIC (K. pneumoniae PCI-602) was 0.1 µg/mL (≈ 0.263 µM) and the MIC (P. vulgaris OX-19) was 0.2 µg/mL (≈ 0.526 µM). The MIC (S. pyogenes Cook) was no more than 0.006 µg/mL, the MIC (S. paratyphi 1015) was 0.1 µg/mL (≈ 0.263 µM) and the MIC (S. aureus Terajima) was 0.013 µg/mL (≈ 0.0342 µM).

Work on C[C@@H](O)[C@H]1C(=O)N2C(C(=O)O)=C(SC3CN(C4=NCCN4)C3)[C@H](C)[C@H]12 [Compound (15), (1R,5S,6S)-2-[1-(1,3-imidazolin-2-yl)azetidin-3-yl]thio-6-[(R)-1-hydroxyethyl]-1-methylcarbapen-2-em-3-carbolic acid] yielded an MIC (S. aureus FDA 209 JC-1) of 0.025 µg/mL (≈ 0.0682 µM), an MIC (S. aureus MS 353) of 0.013 µg/mL (≈ 0.0355 µM) and an MIC (S. typhi 901) of 0.025 µg/mL (≈ 0.0682 µM). It also gave an MIC (E. aerogenes ATCC 13048) of 0.1 µg/mL (≈ 0.273 µM), an MIC (S. typhimurium 11D971) of 0.05 µg/mL (≈ 0.136 µM) and an MIC (P. mirabilis IFO 3849) of 0.78 µg/mL (≈ 2.13 µM). It also gave an MIC (M. morganii IFO 3848) of 1.56 µg/mL (≈ 4.26 µM), an MIC (M. luteus ATCC 9341) of 0.05 µg/mL (≈ 0.136 µM) and an MIC (E. cloacae 963) of 0.05 µg/mL (≈ 0.136 µM). The MIC (B. subtilis ATCC 6633) was 0.025 µg/mL (≈ 0.0682 µM), the MIC (S. schottmuelleri 8006) was 0.1 µg/mL (≈ 0.273 µM) and the MIC (P. aeruginosa IFO 3445) was 1.56 µg/mL (≈ 4.26 µM). For the same compound, the MIC (P. vulgalis HX-19) was 0.78 µg/mL (≈ 2.13 µM), the MIC (P. aeruginosa PAO 1) was 3.13 µg/mL (≈ 8.54 µM) and the MIC (E. coli NIHJ JC-2) was 0.025 µg/mL (≈ 0.0682 µM). For the same compound, the MIC (P. rettgeri IFO 3850) was 0.025 µg/mL (≈ 0.0682 µM), the MIC (P. aeruginosa NCTC 10490) was 1.56 µg/mL (≈ 4.26 µM) and the MIC (S. enteritridis G14) was 1.56 µg/mL (≈ 4.26 µM). It also gave an MIC (E. coli K-12 C600) of 0.2 µg/mL (≈ 0.546 µM), an MIC (K. pneumoniae PCI-602) of 0.05 µg/mL (≈ 0.136 µM) and an MIC (P. vulgaris OX-19) of 0.78 µg/mL (≈ 2.13 µM). It also gave an MIC (S. pyogenes Cook) of no more than 0.006 µg/mL, an MIC (S. paratyphi 1015) of 0.1 µg/mL (≈ 0.273 µM) and an MIC (S. aureus Terajima) of no more than 0.006 µg/mL.
